Laboratory results from patent publication US20260374750A1, “LIGANDS SPECIFICALLY TARGETING VESICULAR GLUTAMATE TRANSPORTERS FOR SUPER-RESOLUTION IMAGING” (SORBONNE UNIVERSITÉ, priority 2021, published 2026).
pEC50: −log10 of the molar value.

Key:
[1] = tested on: VGLUTs (GLU vesicular transport); assay: Vesicular glutamate reuptake test ([3H]-glutamate, synaptic vesicles); type: biochemical, rat; conditions: for potency in words (EC50): based on EC50; for pEC50: vesicular glutamate transport
Experimental: The EC50 was also determined for several of the compounds of the invention.
The vesicular glutamate reuptake was tested as previously described (Kish and Ueda, 1989; Naito and Ueda, 1985; Pietrancosta et al., 2010) with minor modifications. Aliquots of synaptic vesicles […] (obtained by differential centrifugation of rat cortex) were diluted in a solution containing 4 mM HEPES-KOH, pH 7.4 and 0.32M sucrose. The tested compounds were dissolved in 1% ethanol, 1% DMSO (pH was adjusted to 7.4 with 5% KOH) to initial concentrations comprised between 2 mM and 200 μM. The compounds were then diluted to desired final concentrations in a solution containing 10 mM HEPES-KOH, pH 7.4, 0.32 M sucrose, 4 mM KCl, 4 mM MgSO4 (named TPU). The tested compounds were pre-incubated in a solution containing 3 mM ATP-Mg, 1 mM L-aspartic acid, 100 μM glutamate and 0.4 mM […] and 0.4 μM [3H]-Glutamate (1.547 TBq/mmol). After 4 min at 37 °C, the reuptake reaction was initiated by the addition of rat synaptic vesicles. This mixture was incubated for 10 min at 37 °C before adding ice-cold TPU (3.5 mL) and rapidly filtering it through a membrane filter ([…], Millipore MF reference HAWP02500) using a vacuum collector. The filters were washed five times with 3.5 mL of cold TPU and placed in scintillation vials with a scintillation cocktail (optiphase hisafe 3, reference 1200-437, Perkin Elmer). The radioactivity related to the filters was measured in a Beckman LS 6500 scintillation spectrophotometer. The values obtained in the absence of ATP-Mg or in the presence of Carbonyl [COMPOUND LEFT OUT] 3-chlorophenylhydrazone (CCCP, 50 μM reference Sigma C2759) were used to determine the non-specific activity.

[2] = Fluorimetry: absorption and emission spectra, Stokes shift, molar absorption coefficient, quantum efficiency; type: physicochemical; parameters: λmax abs / λmax em: unit not given here; key to Stokes shift: λmaxem − λmaxabs (emission peak minus absorption peak); conditions: for Stokes shift: λmaxem-λmaxabs; for ε (molar absorption coefficient) / φ (quantum efficiency): coumarin-343 as reference
Experimental: The physicochemical properties of each ligand were determined thanks to fluorimetry. For each compound, a dilution range was performed and measurements were taken at 1 mM, 316 μM, 100 μM, 31.6 μM, 10 μM, 3.16 μM and 1μ. In 96-well fluorescence microplates, the absorbance and emission spectra of the ligands could be determined at each concentration thanks to a plate spectrophotometer (Tecan). The absorbance spectra are first measured for each compound so as to determine the maximum absorption wavelength (λmaxabs). The fluorescence, or emission, spectra are then determined after excitation of each compound at its λmaxabs, thus allowing obtaining the maximum fluorescence wavelength (λmaxem). Different parameters specific to each of the compounds were determined: • The Stokes shift: it corresponds to the difference between the peak of the absorption spectrum and the peak of the fluorescence spectrum, i.e.: λmaxem-λmaxabs • The molar absorption coefficient (ε): it reflects the capacity of the solutions to absorb light and is determined by the formula ε=A/(C.I)(A: optical density at λmaxabs, C: concentration of the compound, I: constant corresponding to the length of the optical path). ε is expressed in L·cm^−1·mol^−1. • The quantum efficiency (Φ): it represents the ratio of the number of photons emitted to the number of photons absorbed by the compound, i.e. the “probability” for an excited molecule to emit a photon. It takes a value between 0 and 1, 0 corresponding to a non-fluorescent molecule and 1 meaning that there is no de-excitation. Its value is determined thanks to the following formula where Abs: optical density at λmaxabs, AUC: area under the curve of the fluorescence spectrum, n: refractive index of the medium. In this formula, “m” refers to the studied molecule, and “r” to a reference fluorophore.
[formula] • of the fluorescence spectrum, n: refractive index of the medium). In this formula, “m” refers to the studied molecule, and “r” to a reference fluorophore.
The determination of ε and Φ requires the use of a reference fluorescent molecule for which these two parameters are known. Because of its coumarin-type fluorescent pattern, therefore close to those of the studied compounds, coumarin-343 (ε=44300 L·cm−1·mol−1 and Φ=0.63 in ethanol) was used as reference fluorophore. These two parameters were recalculated in the compound dilution medium (DMSO), and were used as a reference in the calculation of ε and Φ for each ligand.
In order to study the effect of a pH variation on the fluorescence intensity of the compounds, the measurements of the absorption and emission spectra were carried out in three different dilution media: • DMSO: pure dimethyl sulfoxide • Phosphate buffer pH 7.2 (0.2 M) • Phosphate buffer pH 5.5 (0.2 M)
FIG. 1 illustrates the absorption and emission spectra of the compound referenced L8, a carboxylic acid from the quinoline family. This is an example of the study carried out on each of the studied fluorophores. The graphic values determined thanks to these spectra are the λmaxabs, the λmaxem and the Stokes shift in each medium. […] The most diluted wells are preferred to see the emission peak of the compound.
The results which are obtained graphically thanks to the excitation and emission spectra and by calculation via the properties of coumarin 343 are grouped in Table 2 below.

[3] = pH 7 (phosphate buffer pH 7.2, 0.2 M)
[4] = phosphate buffer pH 5.5 (0.2 M)

| potency in words (EC50) [1] | pEC50 ([1]; coumarin-derived compounds) | λmax em ([2]; DMSO) | Stokes shift ([2]; DMSO) | ε (molar absorption coefficient) ([2]; DMSO) [L/cm/mol] | φ (quantum efficiency) ([2]; DMSO) | Stokes shift ([2]; pH 5.5) | λmax abs [2, 3] | Stokes shift ([2]; pH 7) | λmax abs [2, 4] | λmax em [2, 4] | λmax abs ([2]; DMSO) | λmax em [2, 3] | pEC50 ([1]; quinoline-derived compounds) | Compound | % inhibition of GLU vesicular transport at 20 μM ([1]; coumarin-derived compounds) [%] | % inhibition of GLU vesicular transport at 20 μM ([1]; quinoline-derived compounds) [%] | fluorescence intensity of emission spectra ([2]; FIG. 1) |
| --- | --- | --- | --- | --- | --- | --- | --- | --- | --- | --- | --- | --- | --- | --- | --- | --- | --- |
| effective at a very low concentration | 6.30 | 460 | 125 | 51857.8 | 0.06 | 47 | 360 | 80 | 365 | 412 |  |  |  | Nc1ccc(-c2ccc(C#Cc3cc4cc(C(=O)O)c(=O)oc4cc3O)cc2)cc1 [LSP17-1173, 6-((4′-amino-[1,1′-biphenyl]-4-yl)ethynyl)-7-hydroxy-2-oxo-2H-chromene-3-carboxylic Acid] | 100 |  |  |
| effective at a very low concentration | 6.40 | 405-511 | 75 | 21908.6 | 0.14 | 45 | 365 | 51 | 335 | 380 | 330 | 416 |  | COc1cc2oc(=O)c(C(=O)O)cc2cc1-n1cc(-c2ccc(-c3ccc(N)cc3)cc2)nn1 [LSP17-1124, 6-(4-(4′-amino-[1,1′-biphenyl]-4-yl)-1H-1,2,3-triazol-1-yl)-7-methoxy-2-oxo-2H-chromene-3-carboxylic Acid] | 100 |  |  |
|  |  | 500-620 | 160 | 62227.6 | 0.18 | 45 | 365 | 60 | 365 | 410 |  | 425 |  | CCOC(=O)c1cc2cc(C#Cc3ccc(-c4ccc(N)cc4)cc3)c(O)cc2oc1=O [F11, Ethyl-6-((4′-amino-[1,1′-biphenyl]-4-yl)ethynyl)-7-hydroxy-2-oxo-2H-chromene-3-carboxylate] |  |  |  |
|  |  | 410 | 85 | 36944.8 | 0.06 | 43 | 365 | 50 | 365 | 408 | 325 | 415 |  | Nc1ccc(-c2ccc(-c3cn(-c4ccc5oc(=O)c(C(=O)O)cc5c4)nn3)cc2)cc1 [LSP17-1115, 6-(4-(4′-amino-[1,1′-biphenyl]-4-yl)-1H-1,2,3-triazol-1-yl)-2-oxo-2H-chromene-3-carboxylic Acid] | 6 |  |  |
|  |  | 415 | 60 | 35280.3 | 0.32 | 80 | 330 | 80 | 330 | 410 | 355 |  | 4.66 | O=C(O)c1cc(C(=O)O)c2cc(-c3ccc(-c4ccccc4)cc3)ccc2n1 [LSP13-1152-YL152 (L8), 6-(Biphenyl-4-yl) quinoline-2,4-dicarboxylic Acid] |  | 49 | very significant fluorescence intensities |
